Results: patent US20220265834A1, “BCL-2 PROTEIN INHIBITORS” (Recurium IP Holdings, LLC, priority 2019, published 2022)

Legend:
Type in all cases: cell-based
[1] = tested on: MOLT-4 cells; assay: MOLT-4 Cell Proliferation Assay (CellTiter-Glo Luminescent Cell Viability Assay); conditions: Homo sapiens, 72 h incubation, read-out: MOLT-4 (nM) CTG IC50
Procedure: Cell proliferation was measured using the CellTiter-Glo® Luminescent Cell Viability Assay. The assay involved the addition of a single reagent (CellTiter-Glo® Reagent) directly to cells cultured in serum-supplemented medium. MOLT-4 cells (ATCC, CRL-1582) were cultured according to ATCC recommendations and were seeded at 50,000 cells per well.
Each compound evaluated was prepared as a DMSO stock solution (10 mM). Compounds were tested in duplicate on each plate, with a 10-point serial dilution curve (1:3 dilution). The highest compound concentration was 10 μM (final), with a 0.1% final DMSO concentration. Plates were then incubated at 37° C., 5% CO2 for 72 h, cell plates were equilibrated at rt for approximately 30 mins. An equi-volume amount of CellTiter-Glo® Reagent (100 μL) was added to each well. Plates were mixed for 2 mins on an orbital shaker to induce cell lysis and then incubated at rt for 10 mins to stabilize the luminescent signal. Luminescence was recorded using a Envision plate reader according to CellTiter-Glo protocol. IC50 of each compound was calculated using GraphPad Prism by nonlinear regression analysis.

[2] = molecular target: T1, Bcl-xL (Homo sapiens, UniProt Q07817); assay: Protein degradation assay in MOLM-13 cells (Western blot); conditions: for Bcl-xL degradation in MOLM-13 cells: increasing concentrations, 24 hours, FIG. 6; for Bcl-xL degradation with proteasome inhibitor MG132 in MOLM-13 cells: pretreated with 1 μM MG132 for 1 hour, then 1 μM compound, FIG. 7
T1 sequence (Q07817 whole entry): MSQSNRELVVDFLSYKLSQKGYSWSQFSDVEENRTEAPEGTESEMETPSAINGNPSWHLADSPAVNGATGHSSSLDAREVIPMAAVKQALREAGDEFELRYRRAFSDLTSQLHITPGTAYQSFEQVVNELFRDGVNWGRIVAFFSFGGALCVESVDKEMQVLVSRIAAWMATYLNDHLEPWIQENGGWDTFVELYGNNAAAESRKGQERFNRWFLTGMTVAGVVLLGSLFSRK
Procedure: (§1) MOLT-4 (ATCC, CRL-1582) (FIGS. 4, 5) were incubated with vehicle or 100 nM concentrations of the indicated compounds for 16 hours. MOLM-13 (DSMZ, ACC554) (FIG. 6,7) cells were incubated with vehicle or increasing concentrations of the indicated compound for 24 hours. For proteasome inhibition, MOLM-13 cells were pretreated with 1 μM of MG132 for 1 hour before the addition of 1 μM of the indicated compounds. After treatment, the cells were harvested in RIPA lysis buffer supplemented with 1% Phosphatase Inhibitor and Protease Inhibitor Cocktail. An equal amount of protein (10 μg/lane) from each cell extract was resolved on a 4-12% Bis-Tris gel. Proteins were transferred using iBlot 2 Transfer Stacks. The membranes were blocked with 5% nonfat milk in TBS-T buffer (50 mM Tris-HCL, pH 7.6; 150 mM NaCl; and 0.05% Tween) and probed with primary antibodies (1:1000 dilution) overnight at 4° C. After three washes with TBS-T (10 min/wash), the membranes were incubated with an appropriate peroxidase-conjugated secondary antibody (Cell Signaling Technology, USA) for 1 hour at rt. After three washes with TBS-T, the proteins of interest were detected with ECL Western Blotting Detection Reagents and captured with an Azure imaging system. The band intensities were determined using ImageJ software and normalized to loading control β-actin or GAPDH. The primary antibodies Bcl-xL (#2762), Bcl-2 (#2872s), Mcl-1 (#5453s) and β-actin (13E5, #4970), and GAPDH (#5174) were purchased from Cell Signaling Technology.

[3] = molecular target: T1, Bcl-xL; assay: Protein degradation assay in MOLT-4 cells (Western blot); parameters: host or cells: MOLT-4; conditions: 100 nM compound, 16 hours, FIGS. 4 and 5
Procedure: as §1

Compound	IC50 [1] [nM]	Bcl-xL degradation in MOLM-13 cells [2]	Bcl-xL degradation with proteasome inhibitor MG132 in MOLM-13 cells [2]	Bcl-xL degradation in MOLT-4 cells [3]
CC1(C)CCC(c2ccc(Cl)cc2)=C(CN2CCN(c3ccc(C(=O)NS(=O)(=O)c4ccc(N[C@H](CCN5CCOCC5)CSc5ccccc5)c(S(=O)(=O)C(F)(F)F)c4)cc3)CC2)C1 [ABT-263, reference compound]	100 to 200			
CC1(C)CCC(CN2CCN(c3ccc(C(=O)NS(=O)(=O)c4ccc(N[C@H](CCN5CCN(C(=O)NCCOCCOCCNc6cccc7c6C(=O)N(C6CCC(=O)NC6=O)C7=O)CC5)CSc5ccccc5)c(S(=O)(=O)C(F)(F)F)c4)cc3)CC2)=C(C23CC(C(F)F)(C2)C3)C1 (stereo partly drawn) [Example 1, 4-((R)-3-((4-(N-(4-(4-((2-(3-(difluoromethyl)bicyclo[1.1.1]pentan-1-yl)-4,4-dimethylcyclohex-1-en-1-yl)methyl)piperazin-1-yl)benzoyl)sulfamoyl)-2-((trifluoromethyl)sulfonyl)phenyl)amino)-4-(phenylthio)butyl)-N-(2-(2-(2-((2-(2,6-dioxopiperidin-3-yl)-1,3-dioxoisoindolin-4-yl)amino)ethoxy)ethoxy)ethyl)piperazine-1-carboxamide]	≥ 200			
CC1(C)CCC(CN2CCN(c3ccc(C(=O)NS(=O)(=O)c4ccc(N[C@H](CCN5CCN(CCOCCNc6cccc7c6C(=O)N(C6CCC(=O)NC6=O)C7=O)CC5)CSc5ccccc5)c(S(=O)(=O)C(F)(F)F)c4)cc3)CC2)=C(C23CC(C(F)F)(C2)C3)C1 (stereo partly drawn) [Example 2, 4-(4-((2-(3-(Difluoromethyl)bicyclo[1.1.1]pentan-1-yl)-4,4-dimethylcyclohex-1-en-1-yl)methyl)piperazin-1-yl)-N-((4-(((2R)-4-(4-(2-(2-((2-(2,6-dioxopiperidin-3-yl)-1,3-dioxoisoindolin-4-yl)amino)ethoxy)ethyl)piperazin-1-yl)-1-(phenylthio)butan-2-yl)amino)-3-((trifluoromethyl)sulfonyl)phenyl)sulfonyl)benzamide]	≤ 100	can induce Bcl-xL degradation in MOLM-13 cells in a dose dependent manner	can be inhibited by proteasome inhibitor MG132	induce Bcl-xL degradation
CC1(C)CCC(CN2CCN(c3ccc(C(=O)NS(=O)(=O)c4ccc(N[C@H](CCN5CCN(CCOCCOCCNc6cccc7c6C(=O)N(C6CCC(=O)NC6=O)C7=O)CC5)CSc5ccccc5)c(S(=O)(=O)C(F)(F)F)c4)cc3)CC2)=C(C23CC(C(F)F)(C2)C3)C1 (stereo partly shown) [Example 3]		can induce Bcl-xL degradation in MOLM-13 cells in a dose dependent manner	can be inhibited by proteasome inhibitor MG132	
CC1(C)CCC(CN2CCN(c3ccc(C(=O)NS(=O)(=O)c4ccc(N[C@H](CCN5CCN(CCOCCOCCOCCNc6cccc7c6C(=O)N(C6CCC(=O)NC6=O)C7=O)CC5)CSc5ccccc5)c(S(=O)(=O)C(F)(F)F)c4)cc3)CC2)=C(C23CC(C(F)F)(C2)C3)C1 (stereo partly drawn) [Example 4, 4-(4-((2-(3-(difluoromethyl)bicyclo[1.1.1]pentan-1-yl)-4,4-dimethylcyclohex-1-en-1-yl)methyl)piperazin-1-yl)-N-((4-(((2R)-4-(4-(2-(2-(2-(2-((2-(2,6-dioxopiperidin-3-yl)-1,3-dioxoisoindolin-4-yl)amino)ethoxy)ethoxy)ethoxy)ethyl)piperazin-1-yl)-1-(phenylthio)butan-2-yl)amino)-3-((trifluoromethyl)sulfonyl)phenyl)sulfonyl)benzamide]	≤ 100		can be inhibited by proteasome inhibitor MG132	induce Bcl-xL degradation
CC1(C)CCC(CN2CCN(c3ccc(C(=O)NS(=O)(=O)c4ccc(N[C@H](CCN5CCC(C(=O)NCCOCCOCCNc6cccc7c6C(=O)N(C6CCC(=O)NC6=O)C7=O)CC5)CSc5ccccc5)c(S(=O)(=O)C(F)(F)F)c4)cc3)CC2)=C(C23CC(C(F)F)(C2)C3)C1 (stereo partly drawn) [Example 5, 1-((R)-3-((4-(N-(4-(4-((2-(3-(difluoromethyl)bicyclo[1.1.1]pentan-1-yl)-4,4-dimethylcyclohex-1-en-1-yl)methyl)piperazin-1-yl)benzoyl)sulfamoyl)-2-((trifluoromethyl)sulfonyl)phenyl)amino)-4-(phenylthio)butyl)-N-(2-(2-(2-((2-(2,6-dioxopiperidin-3-yl)-1,3-dioxoisoindolin-4-yl)amino)ethoxy)ethoxy)ethyl)piperidine-4-carboxamide]	100 to 200			induce Bcl-xL degradation
CC1(C)CCC(CN2CCN(c3ccc(C(=O)NS(=O)(=O)c4ccc(N[C@H](CCN5CCN(CCOCCNc6ccc7c(c6)C(=O)N(C6CCC(=O)NC6=O)C7=O)CC5)CSc5ccccc5)c(S(=O)(=O)C(F)(F)F)c4)cc3)CC2)=C(C23CC(C(F)F)(C2)C3)C1 (stereo partly drawn) [Example 6, 4-(4-((2-(3-(Difluoromethyl)bicyclo[1.1.1]pentan-1-yl)-4,4-dimethylcyclohex-1-en-1-yl)methyl)piperazin-1-yl)-N-((4-(((2R)-4-(4-(2-(2-((2-(2,6-dioxopiperidin-3-yl)-1,3-dioxoisoindolin-5-yl)amino)ethoxy)ethyl)piperazin-1-yl)-1-(phenylthio)butan-2-yl)amino)-3-((trifluoromethyl)sulfonyl)phenyl)sulfonyl)benzamide]	≤ 100			induce Bcl-xL degradation
CC1(C)CCC(CN2CCN(c3ccc(C(=O)NS(=O)(=O)c4ccc(N[C@H](CCN5CCN(CCOCCNc6cccc7c6C(=O)N(C6CCC(=O)NC6=O)C7=O)CC5)CSc5ccccc5)c(S(=O)(=O)C(F)(F)F)c4)cc3)CC2)=C(C23CC(C)(C2)C3)C1 (stereo partly drawn) [Example 9, 4-(4-((4,4-Dimethyl-2-(3-methylbicyclo[1.1.1]pentan-1-yl)cyclohex-1-en-1-yl)methyl)piperazin-1-yl)-N-((4-(((2R)-4-(4-(2-(2-((2-(2,6-dioxopiperidin-3-yl)-1,3-dioxoisoindolin-4-yl)amino)ethoxy)ethyl)piperazin-1-yl)-1-(phenylthio)butan-2-yl)amino)-3-((trifluoromethyl)sulfonyl)phenyl)sulfonyl)benzamide]	≤ 100			induce Bcl-xL degradation
CC1(C)CCC(CN2CCN(c3ccc(C(=O)NS(=O)(=O)c4ccc(N[C@H](CCN5CCN(CCOCCOCCOCCNc6cccc7c6C(=O)N(C6CCC(=O)NC6=O)C7=O)CC5)CSc5ccccc5)c(S(=O)(=O)C(F)(F)F)c4)cc3)CC2)=C(C23CC(C)(C2)C3)C1 (stereo partly drawn) [Example 10, 4-(4-((4,4-dimethyl-2-(3-methylbicyclo[1.1.1]pentan-1-yl)cyclohex-1-en-1-yl)methyl)piperazin-1-yl)-N-((4-(((2R)-4-(4-(2-(2-(2-(2-((2-(2,6-dioxopiperidin-3-yl)-1,3-dioxoisoindolin-4-yl)amino)ethoxy)ethoxy)ethoxy)ethyl)piperazin-1-yl)-1-(phenylthio)butan-2-yl)amino)-3-((trifluoromethyl)sulfonyl)phenyl)sulfonyl)benzamide]	≤ 100			induce Bcl-xL degradation
